Test results from patent US20260207578A1, “COMPOUND BASED ON SULFUR/OXYGEN SUBSTITUTED GLUTARIMIDE-BASED ISOINDOLINONE SKELETON AND USE THEREOF” (Gluetacs Therapeutics (Shanghai) Co., LTD., priority 2022, published 2026).

Legend:
[1] = biological target: T1, human Cereblon WT GST-tagged protein (Homo sapiens, UniProt Q96SW2); assay: CRBN-binding affinity, HTRF (CEREBLON BINDING kit); conditions: displacement of Thalidomide-Re reagent, 3 hours at room temperature
T1 construct: purchased CISBIO 64BDCRBNPEH
T1 sequence (Q96SW2 whole entry): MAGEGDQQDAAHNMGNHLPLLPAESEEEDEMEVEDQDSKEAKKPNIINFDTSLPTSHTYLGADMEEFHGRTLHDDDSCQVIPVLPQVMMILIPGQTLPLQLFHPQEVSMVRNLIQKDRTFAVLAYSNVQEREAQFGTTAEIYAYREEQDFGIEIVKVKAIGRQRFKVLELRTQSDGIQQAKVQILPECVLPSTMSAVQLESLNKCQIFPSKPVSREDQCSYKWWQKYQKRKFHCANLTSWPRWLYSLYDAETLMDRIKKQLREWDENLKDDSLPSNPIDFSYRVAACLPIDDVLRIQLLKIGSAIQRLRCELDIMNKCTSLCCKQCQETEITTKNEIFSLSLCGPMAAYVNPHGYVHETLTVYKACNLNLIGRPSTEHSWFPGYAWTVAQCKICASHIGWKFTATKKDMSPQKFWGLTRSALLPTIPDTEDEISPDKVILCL
Procedure, shortened: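 Compounds displace a thalidomide-Re tracer from GST-tagged human Cereblon WT, detected with an Eu-labelled anti-GST antibody by time-resolved fluorescence. Signal at 620 nm was normalised against solvent and blank controls.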

IKZF1 = biological target: T2, IKZF1 (Homo sapiens, UniProt Q13422+Q96SW2); assay: Western-blot assay, substrate protein in hPBMCs; assay type: cell-based; conditions: hPBMC cells, 24 hours, tested at 50 nM and 500 nM, table does not say which
T2 construct: endogenous in cells; host or cells: human PBMCs (Milecell Biotechnologies)
T2 sequence (Q13422 whole entry): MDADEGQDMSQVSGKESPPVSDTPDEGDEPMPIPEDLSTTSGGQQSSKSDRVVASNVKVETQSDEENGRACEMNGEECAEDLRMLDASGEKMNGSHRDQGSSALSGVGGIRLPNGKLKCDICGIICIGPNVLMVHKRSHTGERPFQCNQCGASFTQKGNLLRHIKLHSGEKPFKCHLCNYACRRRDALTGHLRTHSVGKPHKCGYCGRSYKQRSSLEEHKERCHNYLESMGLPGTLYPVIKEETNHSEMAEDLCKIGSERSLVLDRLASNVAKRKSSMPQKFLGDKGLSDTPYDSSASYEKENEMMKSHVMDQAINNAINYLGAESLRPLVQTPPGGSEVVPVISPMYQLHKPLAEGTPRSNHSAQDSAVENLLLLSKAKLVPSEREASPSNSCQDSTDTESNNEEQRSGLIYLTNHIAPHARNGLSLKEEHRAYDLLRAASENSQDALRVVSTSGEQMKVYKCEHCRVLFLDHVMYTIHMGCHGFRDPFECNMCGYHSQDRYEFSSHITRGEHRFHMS
T2 sequence (Q96SW2 whole entry): as the sequence (Q96SW2 whole entry) above
T2 sequence (Q16531 whole entry partner): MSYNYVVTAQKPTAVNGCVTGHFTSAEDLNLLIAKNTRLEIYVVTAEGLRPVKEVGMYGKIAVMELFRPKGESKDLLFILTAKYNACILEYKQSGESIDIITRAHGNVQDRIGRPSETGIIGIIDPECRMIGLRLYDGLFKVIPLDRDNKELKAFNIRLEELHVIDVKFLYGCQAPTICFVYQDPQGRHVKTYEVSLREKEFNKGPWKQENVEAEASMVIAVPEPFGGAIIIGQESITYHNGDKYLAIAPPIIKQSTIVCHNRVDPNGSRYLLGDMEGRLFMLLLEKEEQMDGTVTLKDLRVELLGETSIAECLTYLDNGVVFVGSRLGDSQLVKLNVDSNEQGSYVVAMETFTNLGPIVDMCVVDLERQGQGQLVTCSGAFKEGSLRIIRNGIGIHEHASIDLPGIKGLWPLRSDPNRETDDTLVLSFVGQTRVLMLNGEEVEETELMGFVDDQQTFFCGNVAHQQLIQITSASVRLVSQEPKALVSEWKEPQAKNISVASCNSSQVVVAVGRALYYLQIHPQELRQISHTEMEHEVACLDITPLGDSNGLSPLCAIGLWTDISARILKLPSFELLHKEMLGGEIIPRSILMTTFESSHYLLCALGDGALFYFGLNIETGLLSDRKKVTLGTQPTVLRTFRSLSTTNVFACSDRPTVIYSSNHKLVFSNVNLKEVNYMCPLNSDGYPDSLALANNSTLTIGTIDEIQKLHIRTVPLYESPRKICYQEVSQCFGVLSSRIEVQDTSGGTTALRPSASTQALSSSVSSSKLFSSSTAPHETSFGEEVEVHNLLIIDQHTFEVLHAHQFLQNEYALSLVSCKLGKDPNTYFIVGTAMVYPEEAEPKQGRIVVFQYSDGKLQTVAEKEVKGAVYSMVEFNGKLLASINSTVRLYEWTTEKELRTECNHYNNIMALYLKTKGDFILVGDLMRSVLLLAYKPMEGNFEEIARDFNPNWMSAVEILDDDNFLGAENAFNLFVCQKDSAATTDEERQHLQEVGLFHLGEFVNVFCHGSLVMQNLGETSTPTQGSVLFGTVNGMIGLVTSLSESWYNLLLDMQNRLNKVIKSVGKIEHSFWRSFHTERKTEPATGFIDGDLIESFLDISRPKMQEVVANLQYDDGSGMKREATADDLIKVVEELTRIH
Procedure, shortened: (§1)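 hPBMCs (1×10^6 cells/mL) exposed 24 h to compound at 50 nM and 500 nM, lysed, and probed by Western blot. Band grayscale normalized to internal control gives % protein remaining versus DMSO; DC50 from concentration-response fit at half DMSO band intensity.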

IKZF3 = biological target: T3, IKZF3 (Homo sapiens, UniProt Q96SW2+Q9UKT9); assay: Western-blot assay, substrate protein in hPBMCs; assay type: cell-based; conditions: hPBMC cells, 24 hours, tested at 50 nM and 500 nM, table does not say which
T3 construct: endogenous in cells; host or cells: human PBMCs (Milecell Biotechnologies)
T3 sequence (Q9UKT9 whole entry): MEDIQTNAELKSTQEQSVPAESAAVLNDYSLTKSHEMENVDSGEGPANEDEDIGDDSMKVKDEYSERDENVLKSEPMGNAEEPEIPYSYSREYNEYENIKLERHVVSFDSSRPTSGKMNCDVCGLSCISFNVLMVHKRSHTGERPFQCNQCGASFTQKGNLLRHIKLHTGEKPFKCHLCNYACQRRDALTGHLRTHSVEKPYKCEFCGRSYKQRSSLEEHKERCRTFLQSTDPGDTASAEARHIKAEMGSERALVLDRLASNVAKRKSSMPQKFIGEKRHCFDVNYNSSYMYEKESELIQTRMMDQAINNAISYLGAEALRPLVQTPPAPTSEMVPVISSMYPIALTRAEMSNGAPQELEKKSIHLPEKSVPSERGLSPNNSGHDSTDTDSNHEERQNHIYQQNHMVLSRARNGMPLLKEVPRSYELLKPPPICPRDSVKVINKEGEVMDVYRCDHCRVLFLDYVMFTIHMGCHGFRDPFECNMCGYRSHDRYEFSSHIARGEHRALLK
T3 sequence (Q96SW2 whole entry): as the sequence (Q96SW2 whole entry) above
T3 sequence (Q16531 whole entry partner): as the sequence (Q16531 whole entry partner) above
Procedure, shortened: as §1

CK1α = biological target: T4, CK1α (Homo sapiens, UniProt P48729+Q96SW2); assay: Western-blot assay, substrate protein in hPBMCs; assay type: cell-based; conditions: hPBMC cells, 24 hours, tested at 50 nM and 500 nM, table does not say which
T4 construct: endogenous in cells; host or cells: human PBMCs (Milecell Biotechnologies)
Procedure, shortened: (§2)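 Cellular protein levels after a 24 h degrader treatment of human PBMCs were assessed by Western blot densitometry relative to an internal control. Results are expressed as % remaining, % degraded, or DC50 versus DMSO-treated cells.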

GSPT1 = biological target: T5, GSPT1 (Homo sapiens, UniProt P15170+Q96SW2); assay: Western-blot assay, substrate protein in hPBMCs; assay type: cell-based; conditions: hPBMC cells, 24 hours, tested at 50 nM and 500 nM, table does not say which
T5 construct: endogenous in cells; host or cells: human PBMCs (Milecell Biotechnologies)
T5 sequence (P15170 whole entry): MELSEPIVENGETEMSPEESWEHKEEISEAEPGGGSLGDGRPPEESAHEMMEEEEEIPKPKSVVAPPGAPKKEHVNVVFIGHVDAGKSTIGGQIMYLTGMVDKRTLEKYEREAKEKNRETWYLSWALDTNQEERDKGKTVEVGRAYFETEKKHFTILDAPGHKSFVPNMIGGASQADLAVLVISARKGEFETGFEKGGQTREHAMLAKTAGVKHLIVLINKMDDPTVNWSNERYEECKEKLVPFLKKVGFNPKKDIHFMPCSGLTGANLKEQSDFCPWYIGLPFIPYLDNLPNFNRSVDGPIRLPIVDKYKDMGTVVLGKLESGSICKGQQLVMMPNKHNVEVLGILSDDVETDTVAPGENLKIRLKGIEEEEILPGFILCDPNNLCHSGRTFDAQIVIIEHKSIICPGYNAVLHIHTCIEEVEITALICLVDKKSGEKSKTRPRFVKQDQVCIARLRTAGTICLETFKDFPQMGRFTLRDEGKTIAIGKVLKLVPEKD
T5 sequence (Q96SW2 whole entry): as the sequence (Q96SW2 whole entry) above
T5 sequence (Q16531 whole entry partner): as the sequence (Q16531 whole entry partner) above
Procedure, shortened: as §2

IKZF2 = biological target: T6, IKZF2 (Homo sapiens, UniProt Q96SW2+Q9UKS7); assay: Western-blot assay, substrate protein in hPBMCs; assay type: cell-based; conditions: hPBMC cells, 24 hours, tested at 50 nM and 500 nM, table does not say which
T6 construct: endogenous in cells; host or cells: human PBMCs (Milecell Biotechnologies)
T6 sequence (Q9UKS7 whole entry): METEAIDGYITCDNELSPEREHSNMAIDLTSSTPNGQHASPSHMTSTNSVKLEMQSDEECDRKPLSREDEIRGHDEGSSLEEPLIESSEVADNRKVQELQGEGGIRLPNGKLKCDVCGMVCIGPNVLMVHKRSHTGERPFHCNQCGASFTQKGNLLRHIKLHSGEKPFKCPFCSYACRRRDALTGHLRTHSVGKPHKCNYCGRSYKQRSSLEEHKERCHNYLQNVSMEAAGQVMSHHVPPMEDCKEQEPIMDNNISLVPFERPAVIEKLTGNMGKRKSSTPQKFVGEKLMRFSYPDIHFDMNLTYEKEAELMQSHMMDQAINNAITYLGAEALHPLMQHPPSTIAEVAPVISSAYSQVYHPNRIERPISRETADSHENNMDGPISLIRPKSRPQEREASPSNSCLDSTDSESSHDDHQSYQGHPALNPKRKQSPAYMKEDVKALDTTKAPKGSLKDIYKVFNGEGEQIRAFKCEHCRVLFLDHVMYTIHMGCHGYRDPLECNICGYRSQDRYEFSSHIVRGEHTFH
T6 sequence (Q96SW2 whole entry): as the sequence (Q96SW2 whole entry) above
T6 sequence (Q16531 whole entry partner): as the sequence (Q16531 whole entry partner) above
Procedure, shortened: as §2

Wee1 = biological target: T7, Wee1 (Homo sapiens, UniProt P30291+Q96SW2); assay: Western-blot assay, substrate protein in hPBMCs; assay type: cell-based; conditions: hPBMC cells, 24 hours, tested at 50 nM and 500 nM, table does not say which
T7 construct: endogenous in cells; host or cells: human PBMCs (Milecell Biotechnologies)
T7 sequence (P30291 whole entry): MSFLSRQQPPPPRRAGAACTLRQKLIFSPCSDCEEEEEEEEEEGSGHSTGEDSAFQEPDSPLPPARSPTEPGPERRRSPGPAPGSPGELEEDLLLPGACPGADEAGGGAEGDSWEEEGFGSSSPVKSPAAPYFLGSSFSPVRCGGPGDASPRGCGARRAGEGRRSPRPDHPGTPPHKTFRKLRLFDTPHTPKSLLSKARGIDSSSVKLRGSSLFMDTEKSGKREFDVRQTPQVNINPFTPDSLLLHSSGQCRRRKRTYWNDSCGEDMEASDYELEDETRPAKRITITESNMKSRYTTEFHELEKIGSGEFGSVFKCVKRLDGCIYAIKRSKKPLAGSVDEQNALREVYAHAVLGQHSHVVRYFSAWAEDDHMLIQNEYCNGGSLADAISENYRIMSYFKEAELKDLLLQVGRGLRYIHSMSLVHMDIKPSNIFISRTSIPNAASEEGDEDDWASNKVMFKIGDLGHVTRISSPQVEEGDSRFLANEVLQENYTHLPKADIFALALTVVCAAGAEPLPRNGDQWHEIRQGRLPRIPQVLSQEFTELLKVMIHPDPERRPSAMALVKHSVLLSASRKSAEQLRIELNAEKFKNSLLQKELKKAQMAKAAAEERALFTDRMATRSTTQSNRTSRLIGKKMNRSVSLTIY
T7 sequence (Q96SW2 whole entry): as the sequence (Q96SW2 whole entry) above
T7 sequence (Q16531 whole entry partner): as the sequence (Q16531 whole entry partner) above
Procedure, shortened: as §2

SMILES | IC50 [1] [nM] | substrate protein remaining % (IKZF1) | substrate protein remaining % (IKZF3) | substrate protein remaining % (CK1α) | substrate protein remaining % (GSPT1) | substrate protein remaining % (IKZF2) | substrate protein remaining % (Wee1)
O=C1CCC(N2Cc3cc(OC4CN(Cc5ccc(-c6ccncc6)nc5)C4)ccc3C2=O)C(=O)N1 (centres unmarked) [GT-06809, 3-(5-((1-([2,4′-bipyridin]-5-ylmethyl)azetidin-3-yl)oxy)-1-oxoisoindolin-2-yl)piperidine-2,6-dione] | 500 to 1000 | A (0%≤ substrate protein remaining % ≤80%) | A (0%≤ substrate protein remaining % ≤80%) | A (0%≤ substrate protein remaining % ≤80%) | A (0%≤ substrate protein remaining % ≤80%) | A (0%≤ substrate protein remaining % ≤80%) | A (0%≤ substrate protein remaining % ≤80%)
CC1(C)CCC(CN2CCC3(CC2)CC(Oc2ccc4c(c2)CN(C2CCC(=O)NC2=O)C4=O)C3)=C(c2ccc(Cl)cc2)C1 (centres unmarked) [GT-06933, 3-(5-((7-((4′-chloro-5,5-dimethyl-3,4,5,6-tetrahydro-[1,1′-biphenyl]-2-yl)methyl)-7-azaspiro[3.5]nonan-2-yl)oxy)-1-oxoisoindolin-2-yl)piperidine-2,6-dione] | 1000 to 1900 | A (0%≤ substrate protein remaining % ≤80%) | A (0%≤ substrate protein remaining % ≤80%) |  |  | A (0%≤ substrate protein remaining % ≤80%) | A (0%≤ substrate protein remaining % ≤80%)
O=C1CCC(N2Cc3cc(OC4CN(CC5=C(c6ccc(F)cc6)CCCC5)C4)ccc3C2=O)C(=O)N1 (centres unmarked) [GT-06302, 3-(5-((1-((4′-fluoro-3,4,5,6-tetrahydro-[1,1′-biphenyl]-2-yl)methyl)azetidin-3-yl)oxy)-1-oxoisoindolin-2-yl)piperidine-2,6-dione] | 500 to 1000 | A (0%≤ substrate protein remaining % ≤80%) | A (0%≤ substrate protein remaining % ≤80%) | A (0%≤ substrate protein remaining % ≤80%) | A (0%≤ substrate protein remaining % ≤80%) | A (0%≤ substrate protein remaining % ≤80%) | A (0%≤ substrate protein remaining % ≤80%)
CC1(C)CC(c2ccc(Cl)cc2)=C(CN2CC(Sc3ccc4c(c3)CN(C3CCC(=O)NC3=O)C4=O)C2)CO1 (centres unmarked) [GT-06514, 3-(5-((1-((4-(4-chlorophenyl)-6,6-dimethyl-5,6-dihydro-2H-pyran-3-yl)methyl)azetidin-3-yl)thio)-1-oxoisoindolin-2-yl)piperidine-2,6-dione] | 500 to 1000 | A (0%≤ substrate protein remaining % ≤80%) | A (0%≤ substrate protein remaining % ≤80%) |  | A (0%≤ substrate protein remaining % ≤80%) | A (0%≤ substrate protein remaining % ≤80%) | A (0%≤ substrate protein remaining % ≤80%)

Further lines, with some results ahead:

IC50 [1] [nM] | SMILES | substrate protein remaining % (IKZF1) | substrate protein remaining % (IKZF3) | substrate protein remaining % (CK1α) | substrate protein remaining % (GSPT1) | substrate protein remaining % (IKZF2) | substrate protein remaining % (Wee1)
500 to 1000 | O=C1CCC(N2Cc3cc(SC4CN(C(c5cccc(F)c5)c5cccc(F)c5)C4)ccc3C2=O)C(=O)N1 (centres unmarked) [GT-06349, 3-(5-((1-(bis(3-fluorophenyl)methyl)azetidin-3-yl)thio)-1-oxoisoindolin-2-yl)piperidine-2,6-dione] | A (0%≤ substrate protein remaining % ≤80%) | A (0%≤ substrate protein remaining % ≤80%) | A (0%≤ substrate protein remaining % ≤80%) | A (0%≤ substrate protein remaining % ≤80%) | A (0%≤ substrate protein remaining % ≤80%) | 
500 to 1000 | CC1(C)CCC(CN2CC(Oc3ccc4c(c3)CN(C3CCC(=O)NC3=O)C4=O)C2)=C(c2ccc(F)cc2)C1 (centres unmarked) [GT-03459, 3-(5-((1-((4′-fluoro-5,5-dimethyl-3,4,5,6-tetrahydro-[1,1′-biphenyl]-2-yl)methyl)azetidin-3-yl)oxy)-1-oxoisoindolin-2-yl)piperidine-2,6-dione] | A (0%≤ substrate protein remaining % ≤80%) | A (0%≤ substrate protein remaining % ≤80%) | A (0%≤ substrate protein remaining % ≤80%) | A (0%≤ substrate protein remaining % ≤80%) | A (0%≤ substrate protein remaining % ≤80%) | A (0%≤ substrate protein remaining % ≤80%)
< 500 | O=C1CCC(N2Cc3cc(SC4CN(Cc5cnc(-c6ccccc6)cn5)C4)ccc3C2=O)C(=O)N1 (centres unmarked) [GT-06350, 3-(1-oxo-5-((1-((5-phenylpyrazin-2-yl)methyl)azetidin-3-yl)thio)isoindolin-2-yl)piperidine-2,6-dione] | A (0%≤ substrate protein remaining % ≤80%) | A (0%≤ substrate protein remaining % ≤80%) | A (0%≤ substrate protein remaining % ≤80%) | A (0%≤ substrate protein remaining % ≤80%) | A (0%≤ substrate protein remaining % ≤80%) | 
< 500 | CC1(C)CCC(CN2CC(Sc3ccc4c(c3)CN(C3CCC(=O)NC3=O)C4=O)C2)=C(c2ccc(F)cc2)C1 (centres unmarked) [GT-03457, 3-(5-((1-((4′-fluoro-5,5-dimethyl-3,4,5,6-tetrahydro-[1,1′-biphenyl]-2-yl)methyl)azetidin-3-yl)thio)-1-oxoisoindolin-2-yl)piperidine-2,6-dione] | A (0%≤ substrate protein remaining % ≤80%) | A (0%≤ substrate protein remaining % ≤80%) | A (0%≤ substrate protein remaining % ≤80%) | A (0%≤ substrate protein remaining % ≤80%) | A (0%≤ substrate protein remaining % ≤80%) | 
< 500 | O=C1CCC(N2Cc3cc(SC4CN(C(c5ccccn5)c5ccccn5)C4)ccc3C2=O)C(=O)N1 (centres unmarked) [GT-06811, 3-(5-((1-(di(pyridin-2-yl)methyl)azetidin-3-yl)thio)-1-oxoisoindolin-2-yl)piperidine-2,6-dione] | A (0%≤ substrate protein remaining % ≤80%) | A (0%≤ substrate protein remaining % ≤80%) |  | A (0%≤ substrate protein remaining % ≤80%) | A (0%≤ substrate protein remaining % ≤80%) | A (0%≤ substrate protein remaining % ≤80%)
< 500 | O=C1CCC(N2Cc3cc(SC4CN(CC5=C(c6ccc(Cl)cc6)CCOC5)C4)ccc3C2=O)C(=O)N1 (centres unmarked) [GT-06351, 3-(5-((1-((4-(4-chlorophenyl)-5,6-dihydro-2H-pyran-3-yl)methyl)azetidin-3-yl)thio)-1-oxoisoindolin-2-yl)piperidine-2,6-dione] | A (0%≤ substrate protein remaining % ≤80%) | A (0%≤ substrate protein remaining % ≤80%) | A (0%≤ substrate protein remaining % ≤80%) | A (0%≤ substrate protein remaining % ≤80%) | A (0%≤ substrate protein remaining % ≤80%) | 
